What was measured:
[1] = tested on: MIA PaCa-2 cell line transplanted; assay: Tumor-cell-transplanted animal model assay 1, size of transplanted tumor, MIA PaCa-2; assay type: in vivo, BALB/c nude mice; details: MIA PaCa-2 (FIG. 2-1)
Protocol: (§1) Anti-asialo GM1 (rabbit) (Wako Pure Chemical Industries, Ltd.) was intraperitoneally administered to BALB/c nude mice, and the mice were grown at room temperature for 2 hours. To the back of each BALB/c nude mouse, 2×10^6 test cells were subcutaneously injected for transplantation. Compound 11 or compound 12 in a dose of 50 ng or 500 ng or in a dose of 40 ng or 400 ng was intraperitoneally administered to each mouse on each day, from the day following the date of transplantation for mice with the SW620 cell line transplanted, from the day 1 week after the date of transplantation for mice with the MIA PaCa-2 cell line transplanted, and the growth of a tumor mass in each transplantation site was observed. No compound was administered to a control group, and echinomycin in a dose of 40 ng or 400 ng was intraperitoneally administered to each mouse in groups with administration of echinomycin on each day.
(§2) Each of the control group, groups with administration of echinomycin, groups with administration of compound 11, and groups with administration of compound 12 was n=5.

[2] = Tumor-cell-transplanted animal model assay 2, body weight variation; assay type: in vivo, BALB/c nude mice; details: MIA PaCa-2 transplanted mice
Protocol: Anti-asialo GM1 (rabbit) (Wako Pure Chemical Industries, Ltd.) was intraperitoneally administered to BALB/c nude mice, and the mice were grown at room temperature for 2 hours. To the back of each BALB/c nude mouse, 2×10^6 cells of the MIA PaCa-2 cell line were subcutaneously injected for transplantation. Compound 11 or compound 12 in a dose of 500 ng was intraperitoneally administered to each mouse on each day from the day following the date of transplantation, and body weight was measured on each day (n=5 for each group). No compound was administered to a control group, and echinomycin in a dose of 400 ng was intraperitoneally administered to each mouse in a group with administration of echinomycin on each day, and body weight was measured at the date of slaughter (n=5 for each group).

MIA PaCa-2 cell line = assay: SRB assay, pancreatic cancer cell (MIA PaCa-2 cell) line; assay type: cell-based
Protocol: (§3) Used for cells were an SW620 cell line (ATCC), which was a colorectal cancer cell line, and an MIA PaCa-2 cell line (ATCC) and a Suit2 cell line (Health Science Research Resources Bank), which were a pancreatic cancer cell line.
(§4) Culture of the MIA PaCa-2 cell line and the Suit2 cell line was performed by using a DMEM with 10% FBS, 2 mM L-glutamine, 50 U/mL penicillin, and 50 μg/mL streptomycin. Culture of the SW620 cell line was performed by using RPMI1640 with 10% FBS, 2 mM L-glutamine, 50 U/mL penicillin, and 50 μg/mL streptomycin.
(§5) Test cells aliquoted into a 96-well plate at 1.0×10^4 cells/well were cultured for 24 hours, and compound 11 or compound 12 was then added to the culture solution to reach a final concentration of 1 ng/mL, 10 ng/mL, 100 ng/mL, or 1000 ng/mL to initiate incubation, and the plate was taken out after 24 hours, 48 hours, 72 hours, and 96 hours (n=5 for each case).
(§6) To each well of the plate taken out, 100 μL of 10% trichloroacetic acid (TCA) was added, the plate was left to stand at 4° C. for 1 hour, and washed four times with pure water. […] Cell density after each incubation time was determined by measuring OD at 510 nm for stained cells lysed in 10 mM Tris buffer solution. […]

Suit2 cell line = assay: SRB assay, pancreatic cancer cell (SuiT-2 cell) line; assay type: cell-based; details: 100 ng/mL or more
Protocol: as §3, §4, §5, §6

SW620 cell line [3] = assay: SRB assay, colorectal cancer cell (SW620 cell) line; assay type: cell-based
Protocol: as §3, §4, §5, §6

[4] = tested on: SW620 cell line transplanted; assay: Tumor-cell-transplanted animal model assay 1, size of transplanted tumor, SW620; assay type: in vivo, BALB/c nude mice
Protocol: as §1, §2

SW620 cell line [5] = assay: Cell death inducibility, TUNEL method; assay type: cell-based; details: 10 ng/mL, 48 hours
Protocol: The SW620 cell line aliquoted into a 4-well glass chamber slide at 5.0×10^4 cells/well was cultured for 24 hours, and compound 12 was then added to the culture solution to reach a final concentration of 10 ng/mL to initiate incubation, and the slide was taken out after 48 hours.
By using a commercially available cell death detection kit utilizing a TUNEL (TdT-mediated dUTP nick-end labeling) method (In Situ Cell Death Detection Kit and TMR red (Roche Diagnostic)) in accordance with a protocol provided by the manufacturer, TUNEL-stained cells (i.e., cells that underwent cell death) were detected and counted. No compound was added for a control group, and echinomycin was added for a group with administration of echinomycin so that the final concentration of echinomycin reached 10 ng/mL, and the above-described operations were performed.
(§7) Each of the control group, group with administration of echinomycin, and group with administration of compound 12 was n=4.

activated caspase-3 = assay: Detection of activated caspase-3 (Western blotting); assay type: cell-based; details: 10 ng/mL, 48 hours; SW620; actin as endogenous control
Protocol: The SW620 cell line aliquoted into a 6-well plate at 2.0×10^3 cells/well was cultured for 24 hours, and compound 12 was then added to the culture solution to reach a final concentration of 10 ng/mL to initiate incubation, and the plate was taken out after 48 hours.
Proteins were collected by using a commercially available protein collection kit (mammalian cell extraction kit (BioVision, Inc.)) in accordance with a protocol provided by the manufacturer, and activated caspase-3 was quantified through Western blotting with a specific antibody to cleaved caspase-3 (Cell Signaling Technology, Inc.). Actin was used as an endogenous control. No compound was added for a control group, and echinomycin was added for a group with administration of echinomycin so that the final concentration of echinomycin reached 10 ng/mL, and the above-described operations were performed.
as §7

HIF-1a = details: Non Patent Literature 2; cited from earlier work
[6] = Non Patent Literature 1; clinical development abandoned; cited from earlier work
[7] = 500 ng intraperitoneally each day

Structure (SMILES)	size of transplanted tumor [1, 7]	tumor size reduction compared with echinomycin ([1]; 500 ng versus 400 ng of echinomycin)	body weight on day 28 of administration [2, 7]	growth-suppressing activity at low concentration compared with echinomycin (MIA PaCa-2 cell line; 10 ng/mL)	absorbance (cell density, OD at 510 nm) versus control; activity to suppress the growth of cancer cells (MIA PaCa-2 cell line; 100 ng/mL or more)	absorbance (cell density, OD at 510 nm) versus control; activity to suppress the growth of cancer cells (Suit2 cell line)	growth-suppressing activity at low concentration compared with echinomycin (SW620 cell line [3]; 10 ng/mL)	absorbance (cell density, OD at 510 nm) versus control; activity to suppress the growth of cancer cells (SW620 cell line [3]; 100 ng/mL or more)	size of transplanted tumor ([1]; any of the loadings, intraperitoneally each day)	tumor size reduction compared with echinomycin ([4]; 40 ng versus 400 ng of echinomycin, cell line not given)	size of transplanted tumor ([4]; any of the loadings, intraperitoneally each day, SW620 (FIG. 2-2))	number of cells that underwent cell death (TUNEL-stained cells) (SW620 cell line [5])	amount of activated caspase-3, relative to control group (100±45) (activated caspase-3)	body weight on day 28 of administration ([2]; 400 ng intraperitoneally each day)	HIF-1a inhibitory activity (HIF-1a)	toxicity in phase 2 clinical trial [6]
CC(C)[C@H]1C(=O)OC[C@@H](NC(=O)c2cnc3ccccc3n2)C(=O)N[C@@H](C)C(=O)N(C)[C@H]2CSC[C@@H](C(=O)N1C)N(C)C(=O)[C@H](C)NC(=O)[C@H](NC(=O)c1cnc3ccccc3n1)COC(=O)[C@H](C(C)C)N(C)C2=O [compound 11]	Reduction in the size of transplanted tumor	comparable with that provided by administration of 400 ng of echinomycin	Large reduction in body weight was not found	–	–	–	–	–	–	–	–	–	–	–	–	–
CC(C)[C@H]1C(=O)OC[C@@H](NC(=O)c2nc3ccccc3cc2O)C(=O)N[C@@H](C)C(=O)N(C)[C@H]2CSC[C@@H](C(=O)N1C)N(C)C(=O)[C@H](C)NC(=O)[C@H](NC(=O)c1nc3ccccc3cc1O)COC(=O)[C@H](C(C)C)N(C)C2=O [compound 12]	–	–	Large reduction in body weight was not found	higher than that of echinomycin	significant difference in absorbance	significant difference in absorbance	higher than that of echinomycin	significant difference in absorbance	reduction in the size of transplanted tumor	comparable with that of administration of 400 ng of echinomycin	reduction in the size of transplanted tumor	significantly larger than those for the control group and the group with administration of echinomycin	1107±273	–	–	–
CS[C@H]1SC[C@H]2C(=O)N(C)[C@@H](C(C)C)C(=O)OC[C@@H](NC(=O)c3cnc4ccccc4n3)C(=O)N[C@@H](C)C(=O)N(C)[C@@H]1C(=O)N(C)[C@@H](C(C)C)C(=O)OC[C@@H](NC(=O)c1cnc3ccccc3n1)C(=O)N[C@@H](C)C(=O)N2C [echinomycin, reference compound]	–	–	–	–	–	–	–	–	–	–	–	–	362±176	Large reduction in body weight was not found	HIF-1a inhibitory activity	toxicity

Source: patent US11384121B2, “Creation of peptide-based anti-tumor agent” (National University Corporation Hokkaido University, priority 2018, dated 2022)
